This is an account of results in US7135466B2 (Kirin Beer Kabushiki Kaisha, priority 1999, dated 2006).

The term IC50 denotes the concentration at which inhibition is half-maximal. For orientation: inhibition means the relative decrease from the control value, in per cent.

For one assay, the target named is T1, PDGF-Ra (Homo sapiens, UniProt P16234).
T1 construct: host or cells: G-292 human osteosarcoma cells
The assay is described as follows: Inhibitory activity against PDGF-Ra phosphorylation by PDGF-AA stimulation using G292. As to conditions: for IC50: > means inhibition at indicated concentration not more than 50%, < and << not less than 50%, read-out: PDGF (E) IC50. The format is cell-based. An outline of the steps: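 Read-out: A450 from a sandwich ELISA (PY-20 capture, anti-PDGF-Ra detection, peroxidase colour) of lysates from G-292 cells given compound for 1 hr at 37 °C before a 5 min challenge with PDGF-AA at 50 ng/ml.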

The target in another assay is T2, c-kit (Homo sapiens, UniProt P10721).
T2 construct: MO7e (human megakaryocytic leukemia cell line) which had been arrested for 20 hr; endogenous in cells; host or cells: MO7e human megakaryocytic leukemia cell line
The assay is described as follows: Inhibitory activity against c-kit autophosphorylation (MO7e cells, h-SCF). The class given is cell-based. The following applies: for IC50: MO7e cells, read-out: c-kit IC50. An outline of the steps:
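First, human megakaryocytic leukemia MO7e cells arrested 20 hr receive compound for one hour. Second, SCF stimulation (50 ng/ml) runs 5 min, after which cells are solubilized. Third, tyrosine-phosphorylated c-kit in the lysate is quantified by sandwich ELISA with absorbance at 450 nm.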

SMILES strings stand for the structures. Read-outs that look alike come from different tables or passages of the source.

T2 sequence (P10721 26-976): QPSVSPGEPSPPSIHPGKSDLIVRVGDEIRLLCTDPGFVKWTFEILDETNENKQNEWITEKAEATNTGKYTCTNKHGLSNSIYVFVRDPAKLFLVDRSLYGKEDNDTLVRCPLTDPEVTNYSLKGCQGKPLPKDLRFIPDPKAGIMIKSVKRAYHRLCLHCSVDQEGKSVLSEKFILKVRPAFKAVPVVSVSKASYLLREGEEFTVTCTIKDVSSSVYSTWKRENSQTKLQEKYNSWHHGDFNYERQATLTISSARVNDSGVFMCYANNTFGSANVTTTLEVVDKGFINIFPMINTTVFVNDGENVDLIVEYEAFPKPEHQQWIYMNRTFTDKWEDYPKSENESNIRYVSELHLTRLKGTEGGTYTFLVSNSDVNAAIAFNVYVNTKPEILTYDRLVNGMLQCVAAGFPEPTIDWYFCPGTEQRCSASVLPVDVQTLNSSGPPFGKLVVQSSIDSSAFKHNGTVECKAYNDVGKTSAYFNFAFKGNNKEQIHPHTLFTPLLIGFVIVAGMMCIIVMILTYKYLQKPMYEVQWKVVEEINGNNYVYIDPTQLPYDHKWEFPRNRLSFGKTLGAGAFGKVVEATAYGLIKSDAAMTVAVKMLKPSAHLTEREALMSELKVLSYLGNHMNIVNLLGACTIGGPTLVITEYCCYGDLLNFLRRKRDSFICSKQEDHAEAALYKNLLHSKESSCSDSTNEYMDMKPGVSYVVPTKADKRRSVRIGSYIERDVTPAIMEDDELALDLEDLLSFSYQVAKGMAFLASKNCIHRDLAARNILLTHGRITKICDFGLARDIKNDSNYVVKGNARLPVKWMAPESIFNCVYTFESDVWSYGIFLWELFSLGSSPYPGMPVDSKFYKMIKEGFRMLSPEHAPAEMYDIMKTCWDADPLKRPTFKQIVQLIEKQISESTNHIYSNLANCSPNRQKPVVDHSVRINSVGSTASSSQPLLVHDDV
T1 sequence (P16234 24-1089): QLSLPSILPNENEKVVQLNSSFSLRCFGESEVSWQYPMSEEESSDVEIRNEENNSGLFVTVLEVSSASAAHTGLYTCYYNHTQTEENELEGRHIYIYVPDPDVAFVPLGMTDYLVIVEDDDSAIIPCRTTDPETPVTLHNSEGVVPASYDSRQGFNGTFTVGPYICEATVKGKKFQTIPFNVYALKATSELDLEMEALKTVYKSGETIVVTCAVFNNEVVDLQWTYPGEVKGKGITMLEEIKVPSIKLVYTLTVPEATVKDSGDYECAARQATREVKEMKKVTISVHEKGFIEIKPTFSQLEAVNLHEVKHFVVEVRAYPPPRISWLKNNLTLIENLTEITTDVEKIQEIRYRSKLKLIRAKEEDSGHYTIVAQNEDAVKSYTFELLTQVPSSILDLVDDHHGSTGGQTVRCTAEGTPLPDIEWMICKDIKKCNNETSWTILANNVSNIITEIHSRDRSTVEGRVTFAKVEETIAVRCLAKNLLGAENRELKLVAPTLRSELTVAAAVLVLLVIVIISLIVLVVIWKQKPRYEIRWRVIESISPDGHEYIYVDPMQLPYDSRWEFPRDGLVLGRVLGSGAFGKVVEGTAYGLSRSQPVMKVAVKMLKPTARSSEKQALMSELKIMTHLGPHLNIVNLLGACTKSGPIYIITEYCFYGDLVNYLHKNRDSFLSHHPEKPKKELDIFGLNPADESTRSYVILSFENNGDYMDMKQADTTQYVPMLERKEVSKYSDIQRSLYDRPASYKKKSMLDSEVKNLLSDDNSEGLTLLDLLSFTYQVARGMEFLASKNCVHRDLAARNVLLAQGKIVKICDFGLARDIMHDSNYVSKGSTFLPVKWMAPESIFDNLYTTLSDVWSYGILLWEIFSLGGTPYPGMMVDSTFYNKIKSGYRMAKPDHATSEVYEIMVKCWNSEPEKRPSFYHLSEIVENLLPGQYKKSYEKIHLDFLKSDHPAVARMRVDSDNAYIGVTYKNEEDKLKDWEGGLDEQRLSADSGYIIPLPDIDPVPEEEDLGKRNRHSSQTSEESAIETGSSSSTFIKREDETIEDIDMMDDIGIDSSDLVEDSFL

In the case of `COc1cc2nccc(Oc3ccc(NC(=O)OC4CCCC4)c(C)c3C)c2cc1OC` [Example 365, Cyclopentyl N-{4-[(6,7-dimethoxy-4-quinolyl)oxy]-2,3-dimethylphenyl}carbamate], the IC50 on PDGF-Ra (Pharmacological Test Example 1) is less than 10 nM; at c-kit (h-SCF 50 ng/ml), 47 nM.

With `COc1cc2ncnc(Oc3ccc(NC(=O)OC4CCCC4)cc3)c2cc1OC` [Example 366, Cyclopentyl N-{4-[(6,7-dimethoxy-4-quinazolinyl)oxy]phenyl}carbamate], the IC50 on PDGF-Ra (Pharmacological Test Example 1) came to 27 nM; on c-kit (h-SCF 50 ng/ml), 66 nM.

Take `COc1cc2ncnc(Oc3ccc(NC(=O)OC4CCCC4)c(Cl)c3)c2cc1OC` [Example 367, Cyclopentyl N-{2-chloro-4-[(6,7-dimethoxy-4-quinazolinyl)oxy]phenyl}carbamate]: the results for the IC50 on PDGF-Ra (Pharmacological Test Example 1) and on c-kit (h-SCF 50 ng/ml) were 55 nM and 207 nM, respectively.

For `CCCCC(CCCC)OC(=O)Nc1ccc(Oc2ccnc3cc(OC)c(OC)cc23)cc1` [Example 368, 1-Butylpentyl N-{4-[(6,7-dimethoxy-4-quinolyl)oxy]phenyl}carbamate], the results for the IC50 at PDGF-Ra (Pharmacological Test Example 1) and on c-kit (h-SCF 50 ng/ml) were 64 nM and 426 nM, respectively.

Regarding `CCCCC(CCCC)OC(=O)Nc1cc(C)c(Oc2ccnc3cc(OC)c(OC)cc23)cc1C` [Example 369, 1-Butylpentyl N-{4-[(6,7-dimethoxy-4-quinolyl)oxy]-2,5-dimethylphenyl}carbamate], the IC50 at PDGF-Ra (Pharmacological Test Example 1) is more than 100 nM. Besides, the inhibition at 1 µM at c-kit (Mo7e, figure in parentheses in −( ), at 1000 nM) came out at 36%.

Take `CCCCC(CCCC)OC(=O)Nc1ccc(Oc2ccnc3cc(OC)c(OC)cc23)c(C)c1C` [Example 370, 1-Butylpentyl N-{4-[(6,7-dimethoxy-4-quinolyl)oxy]-2,3-dimethylphenyl}carbamate]: the values for the IC50 at PDGF-Ra (Pharmacological Test Example 1) and on c-kit (h-SCF 50 ng/ml) were 74 nM and 585 nM, respectively.

For `CCCCC(CCCC)OC(=O)Nc1ccc(Oc2ncnc3cc(OC)c(OC)cc23)cc1` [Example 371, 1-Butylpentyl N-{4-[(6,7-dimethoxy-4-quinazolinyl)oxy]phenyl}carbamate], the figures for the IC50 on PDGF-Ra (Pharmacological Test Example 1) and on c-kit (h-SCF 50 ng/ml) were less than 10 nM and 541 nM, respectively.

Consider `C=CCOC(=O)Nc1cc(C)c(Oc2ccnc3cc(OC)c(OC)cc23)cc1C` [Example 373, Allyl N-{4-[(6,7-dimethoxy-4-quinolyl)oxy]-2,5-dimethylphenyl}carbamate], for which the IC50 at PDGF-Ra (Pharmacological Test Example 1) was determined as 43 nM; at c-kit (h-SCF 50 ng/ml), 71 nM.

For the compound `C=CCOC(=O)Nc1ccc(Oc2ccnc3cc(OC)c(OC)cc23)c(C)c1C` [Example 374, Allyl N-{4-[(6,7-dimethoxy-4-quinolyl)oxy]-2,3-dimethylphenyl}carbamate], the results for the IC50 at PDGF-Ra (Pharmacological Test Example 1) and on c-kit (h-SCF 50 ng/ml) were less than 10 nM and less than 30 nM, respectively.

Turning to `C=CCOC(=O)Nc1ccc(Oc2ncnc3cc(OC)c(OC)cc23)cc1` [Example 375, Allyl N-{4-[(6,7-dimethoxy-4-quinazolinyl)oxy]phenyl}carbamate], the IC50 at PDGF-Ra (Pharmacological Test Example 1) came to 74 nM; at c-kit (h-SCF 50 ng/ml), 144 nM.

On to `COc1cc2nccc(Oc3ccc(NC(=O)OCCCc4ccccc4)cc3)c2cc1OC` [Example 376, 3-Phenylpropyl N-{4-[(6,7-dimethoxy-4-quinolyl)oxy]phenyl}carbamate], for which the IC50 on PDGF-Ra (Pharmacological Test Example 1) was less than 10 nM; on c-kit (h-SCF 50 ng/ml), 41 nM.

In the case of `COc1cc2nccc(Oc3cc(C)c(NC(=O)OCCCc4ccccc4)cc3C)c2cc1OC` [Example 377, 3-Phenylpropyl N-{4-[(6,7-dimethoxy-4-quinolyl)oxy]-2,5-dimethylphenyl}carbamate], the IC50 was determined as 21 nM at PDGF-Ra (Pharmacological Test Example 1) and 151 nM at c-kit (h-SCF 50 ng/ml).

As for `COc1cc2nccc(Oc3ccc(NC(=O)OCCCc4ccccc4)c(C)c3C)c2cc1OC` [Example 378, 3-Phenylpropyl N-{4-[(6,7-dimethoxy-4-quinolyl)oxy]-2,3-dimethylphenyl}carbamate], the figures for the IC50 on PDGF-Ra (Pharmacological Test Example 1) and at c-kit (h-SCF 50 ng/ml) were 14 nM and 92 nM, respectively.

As for `COc1cc2ncnc(Oc3ccc(NC(=O)OCCCc4ccccc4)c(Cl)c3)c2cc1OC` [Example 379, 3-Phenylpropyl N-{2-chloro-4-[(6,7-dimethoxy-4-quinazolinyl)oxy]phenyl}carbamate], the IC50 turned out to be 11 nM at PDGF-Ra (Pharmacological Test Example 1) and 624 nM on c-kit (h-SCF 50 ng/ml).

For the compound `COc1cc2nccc(Oc3ccc(NC(=O)OCC4CC4)cc3)c2cc1OC` [Example 380, Cyclopropylmethyl N-{4-[(6,7-dimethoxy-4-quinolyl)oxy]phenyl}carbamate], the values for the IC50 at PDGF-Ra (Pharmacological Test Example 1) and on c-kit (h-SCF 50 ng/ml) were less than 10 nM and 45 nM, respectively.

As to `COc1cc2nccc(Oc3ccc(NC(=O)OCC4CC4)c(C)c3C)c2cc1OC` [Example 382, Cyclopropylmethyl N-{4-[(6,7-dimethoxy-4-quinolyl)oxy]-2,3-dimethylphenyl}carbamate], the IC50 was less than 10 nM on PDGF-Ra (Pharmacological Test Example 1) and 28 nM at c-kit (h-SCF 50 ng/ml).

As for `COc1cc2ncnc(Oc3ccc(NC(=O)OCC4CC4)cc3)c2cc1OC` [Example 383, Cyclopropylmethyl N-{4-[(6,7-dimethoxy-4-quinazolinyl)oxy]phenyl}carbamate], the IC50 was found to be 74 nM at PDGF-Ra (Pharmacological Test Example 1) and 90 nM on c-kit (h-SCF 50 ng/ml).

`COc1cc2nccc(Oc3ccc(NC(=O)OCC4CCC4)cc3)c2cc1OC` [Example 385, Cyclobutylmethyl N-{4-[(6,7-dimethoxy-4-quinolyl)oxy]phenyl}carbamate]: the figures for the IC50 at PDGF-Ra (Pharmacological Test Example 1) and at c-kit (h-SCF 50 ng/ml) were less than 10 nM and 87 nM, respectively.

On to `COc1cc2nccc(Oc3cc(C)c(NC(=O)OCC4CCC4)cc3C)c2cc1OC` [Example 386, Cyclobutylmethyl N-{4-[(6,7-dimethoxy-4-quinolyl)oxy]-2,5-dimethylphenyl}carbamate], for which the values for the IC50 on PDGF-Ra (Pharmacological Test Example 1) and on c-kit (h-SCF 50 ng/ml) were 20 nM and 105 nM, respectively.

With `COc1cc2nccc(Oc3ccc(NC(=O)OCC4CCC4)c(C)c3C)c2cc1OC` [Example 387, Cyclobutylmethyl N-{4-[(6,7-dimethoxy-4-quinolyl)oxy]-2,3-dimethylphenyl}carbamate], the IC50 on PDGF-Ra (Pharmacological Test Example 1) is less than 10 nM; at c-kit (h-SCF 50 ng/ml) it was 31 nM.

With `COc1cc2ncnc(Oc3ccc(NC(=O)OCC4CCC4)cc3)c2cc1OC` [Example 388, Cyclobutylmethyl N-{4-[(6,7-dimethoxy-4-quinazolinyl)oxy]phenyl}carbamate], the IC50 came to 12 nM on PDGF-Ra (Pharmacological Test Example 1) and 60 nM at c-kit (h-SCF 50 ng/ml).

Consider `COc1cc2ncnc(Oc3cc(C)c(NC(=O)OC4CCCCC4)cc3C)c2cc1OC` [Example 390, Cyclohexyl N-{4-[(6,7-dimethoxy-4-quinazolinyl)oxy]-2,5-dimethylphenyl}carbamate], for which the IC50 on PDGF-Ra (Pharmacological Test Example 1) stood at 33 nM; on c-kit (h-SCF 50 ng/ml), 400 nM.

On to `COc1cc2ncnc(Oc3ccc(NC(=O)OC4CCCCC4)c(C)c3C)c2cc1OC` [Example 391, Cyclohexyl N-{4-[(6,7-dimethoxy-4-quinazolinyl)oxy]-2,3-dimethylphenyl}carbamate], for which the IC50 on PDGF-Ra (Pharmacological Test Example 1) stood at 13 nM; on c-kit (h-SCF 50 ng/ml) it was 129 nM.

Consider `COc1cc2ncnc(Oc3cc(C)c(NC(=O)OC4CCCC4)cc3C)c2cc1OC` [Example 392, Cyclopentyl N-{4-[(6,7-dimethoxy-4-quinazolinyl)oxy]-2,5-dimethylphenyl}carbamate], for which, on PDGF-Ra (G292, figure in parentheses in >100( ), at 100 nM, read-out: PDGF (E) inhibition (%) at 100 nM), the inhibition at 0.1 µM was 38%. Further, the results for the IC50 on PDGF-Ra (Pharmacological Test Example 1) and at c-kit (h-SCF 50 ng/ml) were more than 100 nM and 432 nM, respectively.

`COc1cc2ncnc(Oc3ccc(NC(=O)OC4CCCC4)c(C)c3C)c2cc1OC` [Example 393, Cyclopentyl N-{4-[(6,7-dimethoxy-4-quinazolinyl)oxy]-2,3-dimethylphenyl}carbamate]: the IC50 on PDGF-Ra (Pharmacological Test Example 1) was 82 nM; at c-kit (h-SCF 50 ng/ml), 90 nM.

With `COc1cc2nccc(Oc3ccc(NC(=O)OCC4CCCC4)cc3)c2cc1OC` [Example 394, Cyclopentylmethyl N-{4-[(6,7-dimethoxy-4-quinolyl)oxy]phenyl}carbamate], the IC50 at PDGF-Ra (Pharmacological Test Example 1) is less than 10 nM; on c-kit (h-SCF 50 ng/ml) it was 133 nM.

On to `COc1cc2nccc(Oc3cc(C)c(NC(=O)OCC4CCCC4)cc3C)c2cc1OC` [Example 395, Cyclopentylmethyl N-{4-[(6,7-dimethoxy-4-quinolyl)oxy]-2,5-dimethylphenyl}carbamate], for which the IC50 turned out to be 19 nM at PDGF-Ra (Pharmacological Test Example 1) and 226 nM on c-kit (h-SCF 50 ng/ml).

Turning to `COc1cc2nccc(Oc3ccc(NC(=O)OCC4CCCC4)c(C)c3C)c2cc1OC` [Example 396, Cyclopentylmethyl N-{4-[(6,7-dimethoxy-4-quinolyl)oxy]-2,3-dimethylphenyl}carbamate], the IC50 at PDGF-Ra (Pharmacological Test Example 1) was determined as 19 nM; on c-kit (h-SCF 50 ng/ml), 86 nM.

As to `COc1cc2ncnc(Oc3ccc(NC(=O)OCC4CCCC4)cc3)c2cc1OC` [Example 397, Cyclopentylmethyl N-{4-[(6,7-dimethoxy-4-quinazolinyl)oxy]phenyl}carbamate], the values for the IC50 at PDGF-Ra (Pharmacological Test Example 1) and on c-kit (h-SCF 50 ng/ml) were less than 10 nM and 77 nM, respectively.

In the case of `COc1cc2ncnc(Oc3ccc(NC(=O)OCC4CCCC4)c(Cl)c3)c2cc1OC` [Example 398, Cyclopentylmethyl N-{2-chloro-4-[(6,7-dimethoxy-4-quinazolinyl)oxy]phenyl}carbamate], the IC50 on PDGF-Ra (Pharmacological Test Example 1) stood at 33 nM; on c-kit (h-SCF 50 ng/ml) it was 462 nM.

As for `COc1cc2ncnc(Oc3ccc(NC(=O)OCCN4CCOCC4)cc3)c2cc1OC` [Example 399, 2-Morpholinoethyl N-{4-[(6,7-dimethoxy-4-quinazolinyl)oxy]phenyl}carbamate], the IC50 was determined as 63 nM on PDGF-Ra and 327 nM on c-kit (50 ng/ml h-SCF).

Take `CCCC(CCC)OC(=O)Nc1ccc(Oc2ncnc3cc(OC)c(OC)cc23)cc1` [Example 400, 1-Propylbutyl N-{4-[(6,7-dimethoxy-4-quinazolinyl)oxy]phenyl}carbamate]: the results for the half-maximal inhibitory concentration (IC50) on PDGF-Ra and on c-kit (50 ng/ml h-SCF) were less than 10 nM and 671 nM, respectively.
